From article PMC11079024, “Identification of a family of species-selective complex I inhibitors as potential anthelmintics” (Nature Communications, 2024)
Where “and” joins values, the source holds several entries; their conditions need not be identical. Equal values may be shown once. Read-outs that look alike come from different tables or passages of the source.

Target: C. elegans (N2) complex I (NADH:ubiquinone oxidoreductase) (Caenorhabditis elegans, UniProt P24887+Q93873+Q94360)
Experiment: biochemical
Assay type: biochemical
Settings: for remaining activity at 0.125 µM / remaining activity at 0.313 µM / remaining activity at 0.625 µM / remaining activity at 1.5 µM / remaining activity at 3 µM / remaining activity at 15 µM / remaining activity at 37.5 µM / remaining activity at 75 µM: wild-type C. elegans mitochondria, read-out: percent (%) in vitro complex I activity relative to solvent control; for Percent in vitro activity, Complex I (single replicate Rep1-Rep4): 100 µM; for activity at 0.0001 µM / activity at 0.0005 µM / Complex I activity, dose-response data / activity at 0.001 µM / activity at 0.0025 µM / activity at 0.005 µM / activity at 0.013 µM / activity at 0.025 µM / activity at 0.063 µM / activity at 0.125 µM / activity at 0.313 µM / activity at 0.625 µM / activity at 1.5 µM / activity at 3 µM / activity at 15 µM / activity at 37.5 µM / activity at 75 µM: C. elegans; for activity at 0.0001 µM / activity at 0.0005 µM / activity at 0.001 µM / activity at 0.0025 µM / activity at 0.005 µM / activity at 0.013 µM / activity at 0.025 µM / activity at 0.063 µM / activity at 0.125 µM / activity at 0.313 µM / activity at 0.625 µM / activity at 1.5 µM / activity at 3 µM / activity at 15 µM / activity at 37.5 µM / activity at 75 µM: read-out: Complex I activity, dose-response data; for IC50: wild-type (N2) mitochondria, read-out: C. elegans Complex I IC50
Method in brief: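 Mitochondria, 0.2 mg/mL protein, freeze-thawed three times, assayed in 25 mM KPi pH 7.5 with BSA, 80 μM NADH, 60 μM decylubiquinone, 160 μM DCIP, antimycin A and KCN. Rate from initial linear slope of A600 over 15 min. % of solvent control.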

[1] = 100 µM compound, relative to solvent control, mean (SEM), read-out: % Activity Complex I
[2] = 100 μM of NPD compound, C. elegans mitochondria, individual biological replicates
[3] = 100 μM of NPD compound, C. elegans mitochondria, individual biological replicates, read-out: Percent in vitro activity, Complex I (single replicate Rep1-Rep4)
[4] = 100 μM of NPD compound, C. elegans mitochondria, mean of four biological replicates, read-out: Percent in vitro activity, Complex I (Mean)
[5] = dose 0.0001 µM, Mean of replicates
[6] = dose 0.0001 µM, individual replicates (Rep)
[7] = dose 0.0005 µM, Mean of replicates
[8] = dose 0.0005 µM, individual replicates (Rep)
[9] = dose 0.001 µM, Mean of replicates
[10] = dose 0.001 µM, individual replicates (Rep)
[11] = dose 0.0025 µM, Mean of replicates
[12] = dose 0.0025 µM, individual replicates (Rep)
[13] = dose 0.005 µM, Mean of replicates
[14] = dose 0.005 µM, individual replicates (Rep)
[15] = dose 0.013 µM, Mean of replicates
[16] = dose 0.013 µM, individual replicates (Rep)
[17] = dose 0.025 µM, Mean of replicates
[18] = dose 0.025 µM, individual replicates (Rep)
[19] = dose 0.063 µM, Mean of replicates
[20] = dose 0.063 µM, individual replicates (Rep)
[21] = dose 0.125 µM, Mean of replicates
[22] = dose 0.125 µM, individual replicates (Rep)
[23] = dose 0.313 µM, Mean of replicates
[24] = dose 0.313 µM, individual replicates (Rep)
[25] = dose 0.625 µM, Mean of replicates
[26] = dose 0.625 µM, individual replicates (Rep)
[27] = dose 1.5 µM, Mean of replicates
[28] = dose 1.5 µM, individual replicates (Rep)
[29] = dose 3 µM, individual replicates (Rep)
[30] = dose 15 µM, individual replicates (Rep)
[31] = dose 37.5 µM, Mean of replicates
[32] = dose 37.5 µM, individual replicates (Rep)
[33] = dose 75 µM, individual replicates (Rep)

Sequence of C. elegans (N2) complex I (NADH:ubiquinone oxidoreductase) (Q94360 17-199): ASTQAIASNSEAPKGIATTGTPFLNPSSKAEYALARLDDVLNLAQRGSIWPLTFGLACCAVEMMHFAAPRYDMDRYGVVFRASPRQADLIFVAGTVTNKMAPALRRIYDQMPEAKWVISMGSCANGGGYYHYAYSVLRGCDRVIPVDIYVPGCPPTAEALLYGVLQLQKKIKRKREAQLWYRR
Sequence of C. elegans (N2) complex I (NADH:ubiquinone oxidoreductase) (P24887 whole entry): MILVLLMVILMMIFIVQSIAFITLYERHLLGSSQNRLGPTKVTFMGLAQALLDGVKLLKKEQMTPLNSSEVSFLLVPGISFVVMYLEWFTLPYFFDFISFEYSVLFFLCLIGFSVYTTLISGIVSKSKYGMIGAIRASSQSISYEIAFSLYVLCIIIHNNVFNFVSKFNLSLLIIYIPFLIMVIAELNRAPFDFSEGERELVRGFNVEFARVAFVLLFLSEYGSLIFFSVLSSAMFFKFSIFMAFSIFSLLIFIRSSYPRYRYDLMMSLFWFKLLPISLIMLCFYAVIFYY
Sequence of C. elegans (N2) complex I (NADH:ubiquinone oxidoreductase) (Q93873 31-482): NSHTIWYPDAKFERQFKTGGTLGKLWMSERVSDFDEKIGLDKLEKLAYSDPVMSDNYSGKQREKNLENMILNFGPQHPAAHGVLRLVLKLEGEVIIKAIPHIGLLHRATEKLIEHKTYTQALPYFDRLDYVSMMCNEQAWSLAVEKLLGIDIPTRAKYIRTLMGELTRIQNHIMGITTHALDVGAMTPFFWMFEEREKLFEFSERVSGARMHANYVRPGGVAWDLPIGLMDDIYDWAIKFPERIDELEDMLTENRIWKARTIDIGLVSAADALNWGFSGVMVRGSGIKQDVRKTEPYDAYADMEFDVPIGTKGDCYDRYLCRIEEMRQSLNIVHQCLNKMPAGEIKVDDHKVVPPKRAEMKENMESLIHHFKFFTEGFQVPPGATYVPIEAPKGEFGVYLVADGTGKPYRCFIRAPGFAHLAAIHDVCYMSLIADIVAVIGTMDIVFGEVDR

`COc1cc2c(cc1OC)C(c1ccc(-c3ccc(Cl)c(Cl)c3)o1)=NCC2` [NPD3577] was tested, and the remaining activity at 0.125 µM (mean of replicates) was 96.8%, the remaining activity at 0.125 µM (single replicate) was 96.7% and the remaining activity at 0.313 µM (mean of replicates) was 92.4%. For the same compound, the remaining activity at 0.313 µM (single replicate) was 92.5%, the remaining activity at 0.625 µM (mean of replicates) was 100% and the remaining activity at 0.625 µM (single replicate) was 100%. It also gave a remaining activity at 1.5 µM (mean of replicates) of 94.3%, a remaining activity at 1.5 µM (single replicate) of 96.2% and a remaining activity at 3 µM (mean of replicates) of 92.6%. It also gave a remaining activity at 3 µM (single replicate) of 93.9%, a remaining activity at 15 µM (mean of replicates) of 62.2% and a remaining activity at 15 µM (single replicate) of 62.5%. It also gave a remaining activity at 37.5 µM (mean of replicates) of 42.6%, a remaining activity at 37.5 µM (single replicate) of 37.8% and a remaining activity at 75 µM (mean of replicates) of 40.7%. The remaining activity at 75 µM (single replicate) was 36.7%, the activity at 100 µM [1] was 36.8% and the “Percent in vitro activity, Complex I (single replicate Rep1-Rep4)” value [2] was 43.782% and 34.898% and 43.141%. The activity at 100 µM [3] was 25.5%, the activity at 100 µM [4] was 36.8% and the activity at 0.0001 µM [5] was 100%. For the same compound, the activity at 0.0001 µM [6] was 100%, the activity at 0.0005 µM [7] was 101% and the “Complex I activity, dose-response data” value [8] was 102.944 and 101.488 and 99.964. For the same compound, the activity at 0.0005 µM [8] was 99.8%, the activity at 0.001 µM [9] was 107% and the “Complex I activity, dose-response data” value [10] was 100.123 and 101.601 and 102.139 and 122.392. For the same compound, the activity at 0.0025 µM [11] was 108%, the “Complex I activity, dose-response data” value [12] was 107.455 and 110.182 and 112.130 and the activity at 0.0025 µM [12] was 102%. For the same compound, the activity at 0.005 µM [13] was 104%, the “Complex I activity, dose-response data” value [14] was 104.715 and 108.539 and 101.437 and the activity at 0.005 µM [14] was 100%. The activity at 0.013 µM [15] was 97.9%, the “Complex I activity, dose-response data” value [16] was 98.157 and 103.636 and 111.482 and 78.345 and the activity at 0.025 µM [17] was 98.1%. For the same compound, the “Complex I activity, dose-response data” value [18] was 97.798 and 102.639 and 113.034 and 78.823, the activity at 0.063 µM [19] was 101% and the “Complex I activity, dose-response data” value [20] was 101.240 and 102.785 and 102.967. The activity at 0.063 µM [20] was 97%, the activity at 0.125 µM [21] was 96.8% and the “Complex I activity, dose-response data” value [22] was 97.708 and 99.291 and 93.354. The activity at 0.125 µM [22] was 96.7%, the activity at 0.313 µM [23] was 92.4% and the “Complex I activity, dose-response data” value [24] was 97.105 and 93.945 and 86.205. For the same compound, the activity at 0.313 µM [24] was 92.5%, the activity at 0.625 µM [25] was 100% and the activity at 0.625 µM [26] was 100%. For the same compound, the activity at 1.5 µM [27] was 94.3%, the “Complex I activity, dose-response data” value [28] was 94.111 and 90.424 and 96.414 and the activity at 1.5 µM [28] was 96.2%. For the same compound, the activity at 3 µM (dose 3 µM, Mean of replicates) was 92.6%, the “Complex I activity, dose-response data” value [29] was 91.612 and 93.694 and 91.331 and the activity at 3 µM [29] was 93.9%. For the same compound, the activity at 15 µM (dose 15 µM, Mean of replicates) was 62.2%, the “Complex I activity, dose-response data” value [30] was 63.065 and 59.782 and 63.349 and the activity at 15 µM [30] was 62.5%. The activity at 37.5 µM [31] was 42.6%, the “Complex I activity, dose-response data” value [32] was 41.693 and 41.389 and 49.686 and the activity at 37.5 µM [32] was 37.8%. The activity at 75 µM (dose 75 µM, Mean of replicates) was 40.7%, the “Complex I activity, dose-response data” value [33] was 47.397 and 37.818 and 40.786 and the activity at 75 µM [33] was 36.7%. The IC50 was 12.1 µM.

Work on `COc1cc2c(cc1OC)C(/C=C/c1ccc(N(C)C)cc1)=NCC2` [NPD6303] yielded a remaining activity at 0.125 µM (mean of replicates) of 93.1%, a remaining activity at 0.125 µM (single replicate) of 103% and a remaining activity at 0.313 µM (mean of replicates) of 88%. The remaining activity at 0.313 µM (single replicate) was 83.6%, the remaining activity at 0.625 µM (mean of replicates) was 108% and the remaining activity at 0.625 µM (single replicate) was 106%. For the same compound, the remaining activity at 1.5 µM (mean of replicates) was 100%, the remaining activity at 1.5 µM (single replicate) was 100% and the remaining activity at 3 µM (mean of replicates) was 89.5%. The remaining activity at 3 µM (single replicate) was 82.5%, the remaining activity at 15 µM (mean of replicates) was 47.6% and the remaining activity at 37.5 µM (mean of replicates) was 15%. For the same compound, the remaining activity at 75 µM (mean of replicates) was 9.53%, the activity at 100 µM [1] was 12.7% and the “Percent in vitro activity, Complex I (single replicate Rep1-Rep4)” value [2] was 10.460% and 12.057% and 12.075%. The activity at 100 µM [3] was 16.4%, the activity at 100 µM [4] was 12.7% and the activity at 0.0001 µM [5] was 98.7%. The “Complex I activity, dose-response data” value [6] was 97.469 and 99.188, the activity at 0.0001 µM [6] was 101% and the activity at 0.0005 µM [7] was 100%. The activity at 0.0005 µM [8] was 100%, the activity at 0.001 µM [9] was 98.7% and the “Complex I activity, dose-response data” value [10] was 94.995 and 103.570. For the same compound, the activity at 0.001 µM [10] was 101%, the activity at 0.0025 µM [11] was 103% and the “Complex I activity, dose-response data” value [12] was 97.419 and 110.831. For the same compound, the activity at 0.0025 µM [12] was 106%, the activity at 0.005 µM [13] was 99.6% and the “Complex I activity, dose-response data” value [14] was 94.468 and 104.617. For the same compound, the activity at 0.005 µM [14] was 105%, the activity at 0.013 µM [15] was 97.2% and the “Complex I activity, dose-response data” value [16] was 91.183 and 107.524. The activity at 0.013 µM [16] was 98.9%, the activity at 0.025 µM [17] was 97.1% and the “Complex I activity, dose-response data” value [18] was 90.226 and 107.714. For the same compound, the activity at 0.025 µM [18] was 100%, the activity at 0.063 µM [19] was 95.9% and the “Complex I activity, dose-response data” value [20] was 89.273 and 101.913. The activity at 0.063 µM [20] was 103%, the activity at 0.125 µM [21] was 93.1% and the “Complex I activity, dose-response data” value [22] was 87.998 and 93.858. The activity at 0.125 µM [22] was 103%, the activity at 0.313 µM [23] was 88% and the “Complex I activity, dose-response data” value [24] was 86.077 and 96.329. For the same compound, the activity at 0.313 µM [24] was 83.6%, the activity at 0.625 µM [25] was 108% and the “Complex I activity, dose-response data” value [26] was 108.371 and 107.823. For the same compound, the activity at 0.625 µM [26] was 106%, the activity at 1.5 µM [27] was 100% and the activity at 1.5 µM [28] was 100%. For the same compound, the activity at 3 µM (dose 3 µM, Mean of replicates) was 89.5%, the “Complex I activity, dose-response data” value [29] was 88.910 and 97.542 and the activity at 3 µM [29] was 82.5%. For the same compound, the activity at 15 µM (dose 15 µM, Mean of replicates) was 47.6%, the “Complex I activity, dose-response data” value [30] was 33.770 and 49.973 and 56.558 and the activity at 37.5 µM [31] was 15%. The “Complex I activity, dose-response data” value [32] was 10.655 and 12.339 and 24.559, the activity at 75 µM (dose 75 µM, Mean of replicates) was 9.53% and the “Complex I activity, dose-response data” value [33] was 11.807 and 4.396 and 17.534. For the same compound, the IC50 was 11.9 µM and 11 µM.
